Values joined by “and” are separate entries in the source; they are usually repeats but may differ in a detail not shown here. Equal entries are not always repeated. Active and inactive are the calls of the source.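 The calls were made as follows: active = compounds giving half or more protection of infected cells from virus-caused growth loss, again on retest; inactive = the rest.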 Where a SMILES comes first, the peptide text is derived from it. The star is where a group is joined. Boc = CC(C)(C)OC(=O)*; OSu = O=C1CCC(=O)N1O*
Tested on: CEM cells HIV-1 protection, formazan growth assay
Experiment: NCI AIDS Antiviral Assay
Settings: for IC50: measured here: growth of uninfected CEM cells
Procedure, shortened: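 Soluble formazan readout of cell growth; CEM cells ± HIV-1; 5 drug concs. ≥50% protection → retest; ≥50% again = moderately active; reproducible 100% = confirmed active.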

Row | Compound | EC50 [µM] | IC50 | outcome
1 | O=C(Cc1ccccc1)c1ccc(O)cc1O | > 200 | 85.1 µM | –
2 | Cc1ccc(C)c(N2C(=O)C(=O)C(c3nc4ccccc4s3)/C(=N/NC(=O)NN)C2=O)c1 (stereo unspecified) | – | – | inactive
3 | COc1cccc(/C=C(\C#N)C(=O)O)c1 | > 1230 | 158 µM | –
4 | Nc1ncnc2c1ncn2CC1COC(CO)O1 (stereo unspecified) | > 1000 | > 1000 µM | –
5 | COc1ccccc1NC(=S)N/C=C(\C#N)C(=O)c1ccc2ccccc2c1 | > 200 | 37.2 µM | –
6 | O=C(NCCCN(CCCCN(CCCNC(=O)C(F)(F)F)Cc1ccccc1)Cc1ccccc1)C(F)(F)F | > 200 | 37.2 µM | –
7 | c1ccc2c3c([nH]c2c1)C1C2CCCCN2C(c2ccncc2)N1CC3 (stereo unspecified) | > 75.9 | 42.7 µM | –
8 | CC(C)[Si](OCC1CC(C[C@H]2CC(C[C@H]3C[C@@H](CO[Si](C(C)C)(C(C)C)C(C)C)OC(C)(C)O3)OC(C)(C)O2)OC(C)(C)O1)(C(C)C)C(C)C (stereo partly specified) | > 200 | > 200 µM | –
9 | CCc1cccc(C(C)C)c1NC(=O)C(=O)C(C(=O)C(=O)OC)c1nc2ccccc2[nH]c1=O (stereo unspecified) | > 537 | 269 µM | –
10 | O=C1C2=C(c3ccccc31)C(c1ccc(Cl)cc1)N1C(=O)CCSC1=N2 (stereo unspecified) | > 49 | > 49 µM | –
11 | CCOC(=O)Nc1[nH]c(C)c(Cc2ccccc2)c1C#N | > 200 | 12.3 µM | –
12 | CCCCCCCCCCCCCCCC=C(c1cc(Cl)c(O)c(C(=O)O)c1)c1cc(Cl)c(O)c(C(=O)O)c1 | 20.9 | 34.7 µM | –
13 | NC(CCSCCF)C(=O)O (stereo unspecified) | > 692 | 102 µM | –
14 | CCOC(=O)c1ccc(C(=O)/C(C#N)=C2\CCCN2)[nH]1 | > 200 | 89.1 µM | –
15 | O=c1c(SCc2ccc(Cl)cc2)c(N2CCCCC2)cnn1-c1ccccc1 | > 24 | > 24 µM | –
16 | COc1ccc(C2S/C(=C\c3cc(OC)c(OC)c(OC)c3)C(=O)N2NC(=O)Cc2ccccc2)cc1 (stereo unspecified) | > 36.3 | > 36.3 µM | –
17 | O=C1C(=O)N(c2ccc(Cl)c(Cl)c2)C(=O)C(=O)C1c1nc2ccccc2o1 | – | – | inactive
18 | CC(C)(C)OC(=O)NC(Cc1ccc(O)cc1)C(=O)NC(CCCCN)C(=O)NC(Cc1ccc(O)cc1)C(=O)NC(CCCCN)C(=O)ON1C(=O)CCC1=O (stereo unspecified) (Boc-YKYK-OSu; configuration not given here) | > 100 | > 100 µM | –
19 | COC(=O)n1c(=O)n(-c2ccccc2)c(=O)n1C(=O)OC | 155 | 195 µM | –
20 | CCCc1cc(=O)oc2c3c(c4c(c12)OC(C)(C)CC4)O[C@@H](C)[C@H](C)[C@H]3O | > 200 | 33.1 µM | inactive
21 | Cc1ccc2c(c1)[nH]c1cc(C(F)(F)F)ccc1[p+]2=O (stereo unspecified) | > 200 | 26.3 µM | –

Row | Compound | EC50 [µM] | IC50 | outcome
22 | CN1C(=O)C(O)CC1c1cccc(C(F)(F)F)c1 (stereo unspecified) | – | – | inactive
23 | COC(=O)C(=O)OC1(C(C)=O)CC2(c3ccccc3)OC1(c1ccccc1)c1ccccc12 (stereo unspecified) | – | – | inactive
24 | CC(C)(C)C(O)CC(O)(C(F)(F)F)C(F)(F)F (stereo unspecified) | > 200 | > 200 µM | –
25 | CN(C)C1CCC2(CC1)OCCO2 | – | – | inactive
26 | NCCNCCNCc1c2ccccc2c(CNCCNCCN)c2ccccc12 | 5.89 | 39.8 µM | –
27 | NNC(=O)Cn1ccnn1 | > 200 | > 200 µM | –
28 | NCCC1(N)CCNCC1 | – | – | inactive
29 | O=C(OC1C(OC(=O)c2cccnc2)C(OC(=O)c2cccnc2)C(OC(=O)c2cccnc2)C(OC(=O)c2cccnc2)C1OC(=O)c1cccnc1)c1cccnc1 (stereo unspecified) | > 200 | > 200 µM | –
30 | CC(C)(C)[Si](C)(C)OCC1OC(n2ccc(=O)[nH]c2=O)C(O[Si](C)(C)C(C)(C)C)C1C/C(N)=N/O (stereo unspecified) | > 200 | 6.61 µM and 30.9 µM | –
31 | COc1ccc(C(CC(=O)c2ccc3c(c2)OCO3)c2c(O)c3ccccc3oc2=O)cc1OC (stereo unspecified) | > 200 | 75.9 µM | –
32 | CC(=O)OCC1OC(n2c3c(c(-c4ccc(C)cc4)c(C#N)c2=S)C(=O)CC(C)(C)C3)C(OC(C)=O)C(OC(C)=O)C1OC(C)=O (stereo unspecified) | > 200 | 16.6 µM | –
33 | NC(CSS(=O)(=O)O)=NCCCc1nc2ccccc2[nH]1 | > 200 | 45.7 µM | –
34 | CCCOC(=O)C(C)(C)C(OP(OCCC)OCCC)=C(C)C | > 200 | > 200 µM | –
35 | CNC(C#N)c1ccc(OC)cc1 (stereo unspecified) | > 200 | 105 µM | –
36 | CC1=NOCC(=O)N1 | > 2190 | > 2190 µM | –
37 | CC[C@]1(c2ccc3c(c2)OCO3)C=[N+]([O-])O[C@H](OC2CCCC2(c2ccccc2)c2ccccc2)[C@@H]1OC(C)=O (stereo partly specified) | > 200 | 4.07 µM | –
38 | COc1ccc(C2SC(N)=Nc3c2c(C)nn3C(=O)c2ccc(Cl)cc2)cc1OC (stereo unspecified) | > 200 | > 200 µM | –
39 | O=c1c2cc([N+](=O)[O-])ccc2n(Cc2ccccc2)n1Cc1ccccc1 | > 200 | 13.2 µM | –
40 | N.N.N.N.N.[Cl-].[Co+3].c1ccc(-c2nn[n-]n2)cc1 | > 692 | > 692 µM | –
41 | Cc1oc(C)c2c1C(=O)c1ccccc1C2=O | > 200 | 123 µM | –
42 | COc1ccc(/C=C(\C#N)c2ccc(C)cc2)cc1OC | > 200 | 33.1 µM | –

Row | Compound | EC50 [µM] | IC50 | outcome
43 | CCCCC(CC)CCC(CCC(CC)CCCC)S(=O)(=O)O (stereo unspecified) | > 200 | > 200 µM | –
44 | COc1ccc(CCN2COc3ccc4ccc(=O)oc4c3C2)cc1OC | > 200 | 67.6 µM | –
45 | CN1C(=O)N(C)C2SC(=NCc3ccccc3)NN2C1=O (stereo unspecified) | > 85.1 | 81.3 µM | –
46 | O=C1CCC(c2ccccc2)=NN1c1nc2ccccc2s1 | – | – | inactive
47 | O=C(O)c1c2c(nc3ccccc13)CCCC2 | > 398 | > 398 µM | –
48 | O=C(O)c1ccc2c3c(n[se]c13)-c1ccccc1C2=O | > 8.32 | > 8.32 µM | –
49 | COc1ccc(CN2CCCN(Cc3ccc(OC)cc3)S2)cc1 | > 75.9 | 31.6 µM | –
50 | O=C(/C=C/c1cc(O)ccc1O)OCCc1ccccc1 | > 45.7 | 6.17 µM | –
51 | O=c1oc2c(-c3ccccc3)cccc2c(O)c1-c1ccccc1 | > 200 | 85.1 µM | –
52 | O=C1c2ccccc2/C=C\C(c2ccccc2)=N/N1c1ccccc1Cl | > 200 | 12.6 µM | –
53 | CCOC(=O)c1c(-c2ccccc2)c(OC)cn1C | > 200 | > 200 µM | –
54 | O=C1CCC(=O)N2c3ccccc3-c3ccccc3N12 | > 191 | > 191 µM | –
55 | CN1C(=O)N(C)C2(CCN(CCCCCCF)CC2)C1=O | > 200 | > 200 µM | –
56 | CCOC(OCC)C(CC)[Se]c1ccccc1 (stereo unspecified) | > 87.1 | > 87.1 µM | –
57 | Cn1c(=S)[nH]c2c(Cl)cc(Cl)cc2c1=O | > 200 | 138 µM | –
58 | CCN(CC)CCOc1ccc2c(c1O)C(=O)c1ccccc1C2=O | > 74.1 | 3.98 µM | –
59 | O=C(/C=C/c1ccc(-c2ccccc2)cc1)c1ccccc1 | > 13.2 | > 13.2 µM | –
60 | CC(N)C(=O)NCC(=O)NC(CO)C(=O)NC(CCC(N)=O)C(=O)NC(CCC(=O)O)C(=O)N1CCCC1C(=O)NC(CCCCN)C(=O)NC(CCC(=O)O)C(=O)NC(CCC(N)=O)C(=O)NC(CO)C(=O)NC(CO)C(=O)NC(Cc1ccc(O)cc1)C(=O)NC(CO)C(=O)NC(Cc1cnc[nH]1)C(=O)NC(CO)C(=O)O (stereo unspecified) (H-AGSQEPKEQSSYSHS-OH; configuration not given here) | > 100 | > 100 µM | –
61 | CN1CCN(CCSc2nnc(-c3ccc4ccccc4c3)c3ccccc23)CC1 | > 219 | 12.9 µM | –

From PubChem BioAssay AID179 (DTP/NCI, 2004)
